US20260000675A1, “COMBINATION THERAPY FOR PREVENTING OR TREATING OBESITY” (LG CHEM, LTD., priority 2022, published 2026)

Key:
Assay type in all cases: in vivo
[1] = test system: diet-induced obesity (DIO) mouse model; assay: Weight loss effect on repeated co-administration with semaglutide in DIO mice; settings: repeated co-administration with semaglutide over 18 days, versus single administration, FIGS. 1 and 2
Protocol: In a diet-induced obesity (DIO) mouse model where obesity was induced using a high-fat diet, the weight loss effect was measured over 18 days following repeated co-administration of semaglutide (a GLP-1 receptor agonist, trade name: Ozempic) and an MC4R agonist, N-((3S,5S)-1-((3S,4R)-1-(tert-butyl)-4-(4-chlorophenyl)pyrrolidine-3-carbonyl)-5-(morpholin-4-carbonyl)pyrrolidin-3-yl)-N-((1 S,4R)-4-methylcyclohexyl)isobutyramide hydrochloride obtained in Preparation Example (hereinafter referred to as ‘test compound’). Body weight measurements were taken once daily prior to the administration of the test substances, and changes in body weight compared to weight (D1) prior to the administration of the test substances were calculated and presented in FIGS. 1 and 2. By comparing the weight loss effect in the co-administration group to that in the single administration group, the effect of co-administration of a GLP-1 receptor agonist and the test compound was evaluated.

[2] = test system: diet-induced obesity (DIO) mouse model; assay: Reduction in liver/fat weight on repeated co-administration with semaglutide in DIO mice; settings: after 3 weeks, FIG. 3
Protocol: In a diet-induced obesity (DIO) mouse model where obesity was induced using a high-fat diet, the effect of reduction in liver and fat weights was measured after 3 weeks of repeated co-administration of semaglutide (a GLP-1 receptor agonist, trade name: Ozempic) and the test compound, which is an MC4R agonist, with the results shown in FIG. 3.

[3] = test system: diet-induced obesity (DIO) mouse model; assay: Comparative example: weight loss on co-administration of semaglutide with test compound or setmelanotide in DIO mice; settings: repeated co-administration with semaglutide for 18 days, test compound 15 mg/kg/day, comparative compound 3 mg/kg/day, FIG. 4
From the text: In a diet-induced obesity (DIO) mouse model where obesity was induced using a high-fat diet, the weight loss effect was compared after 18 days of repeated co-administration of semaglutide (a GLP-1 receptor agonist, trade name: Ozempic) with either the test compound, which is an MC4R agonist, or setmelanotide (RM-493), which is a peptide MC4R agonist (hereinafter referred to as ‘comparative compound’). Dosages of the test compound and the comparative compound were selected based on the efficacious doses observed in single administration studies (test compound: 15 mg/kg/day, comparative compound: 3 mg/kg/day). Body weight measurements were taken once daily prior to the administration of the test substances, and changes in body weight after 18 days relative to weight (D1) prior to the administration of the test substances were calculated and presented in FIG. 4.

[4] = test system: diet-induced obesity (DIO) mouse model; assay: Combination study with PF-06882961 (danuglipron) in DIO mice: food intake, body weight, body fat mass, OGTT
Protocol: In a diet-induced obesity (DIO) mouse model where obesity was induced using a high-fat diet, changes in food intake and body weight were measured over 4 weeks of repeated co-administration of PF-06882961 (danuglipron), which is an oral GLP-1 receptor agonist, and the test compound, which is an MC4R agonist. Food intake and body weight were measured once daily prior to the administration of the test substances, and changes in body weight relative to weight (D1) prior to the administration of the test substances were calculated, with the results presented in FIGS. 5 and 6, respectively. Further, on the 28th day after the administration of the test substances, body fat mass and an oral glucose tolerance test (OGTT) were measured, with the results shown in FIGS. 7 and 8, respectively. Body fat mass was measured using a ^1H-Mini-spec system (LF-9011, Bruker Optics GmbH, Germany) and blood glucose was measured using GM9 (Analox Instruments Ltd., UK) with blood samples collected from the tail vein.

CC(C)C(=O)N([C@H]1C[C@@H](C(=O)N2CCOCC2)N(C(=O)[C@@H]2CN(C(C)(C)C)C[C@H]2c2ccc(Cl)cc2)C1)[C@H]1CC[C@@H](C)CC1.Cl [test compound, N-((3S,5S)-1-((3S,4R)-1-(tert-butyl)-4-(4-chlorophenyl)pyrrolidine-3-carbonyl)-5-(morpholine-4-carbonyl)pyrrolidin-3-yl)-N-((1s,4R)-4-methylcyclohexyl)isobutyramide hydrochloride]
weight loss effect (change in body weight relative to D1) [1]: synergistic weight loss effect
effect of reduction in fat weight [2]: synergistic effect in reducing liver and fat weights
effect of reduction in liver weight [2]: synergistic effect in reducing liver and fat weights
weight loss effect (change in body weight after 18 days relative to D1) [3]: significant synergistic weight loss effect
reduction in body fat mass ([4]; co-administration with PF-06882961, day 28, 1H-Mini-spec, versus single administration, FIG. 7): much greater reduction in body fat mass
improvement in glucose tolerance (OGTT) ([4]; co-administration with PF-06882961, day 28, oral glucose tolerance test, versus single administration, FIG. 8): improvement in glucose tolerance
weight loss effect (change in body weight relative to D1) ([4]; repeated co-administration with PF-06882961 over 4 weeks (28 days), versus single administrations, FIG. 6): synergistic weight loss effect
reduction in food intake ([4]; repeated co-administration with PF-06882961 over 28 days, versus single administrations, FIG. 5): significant reduction in food intake
